# Measured values: patent US5264427A, “20-substituted pregnene derivatives and their use as androgen synthesis inhibitors” (priority 1992, dated 1993)
# “Also recorded” adds a separate entry of the source. Like-named read-outs stand apart in the source and are kept apart here.
# How the values were obtained:
# [1] = biological target: T1, rat testicular 17(alpha)-hydroxylase/C17,20-lyase (Rattus norvegicus, UniProt P11715); assay: Hydroxylase/lyase assay, rat testicular homogenates, [21-14C]progesterone (Example 4, Table 3); format: biochemical; conditions: 0.75 h
# T1 construct: rat testicular homogenates (prepared from 220-250g adult male Sprague-Dawley rats); from tissue; host or cells: testes of adult male Sprague-Dawley rats, homogenate
# T1 sequence (P11715 1-507): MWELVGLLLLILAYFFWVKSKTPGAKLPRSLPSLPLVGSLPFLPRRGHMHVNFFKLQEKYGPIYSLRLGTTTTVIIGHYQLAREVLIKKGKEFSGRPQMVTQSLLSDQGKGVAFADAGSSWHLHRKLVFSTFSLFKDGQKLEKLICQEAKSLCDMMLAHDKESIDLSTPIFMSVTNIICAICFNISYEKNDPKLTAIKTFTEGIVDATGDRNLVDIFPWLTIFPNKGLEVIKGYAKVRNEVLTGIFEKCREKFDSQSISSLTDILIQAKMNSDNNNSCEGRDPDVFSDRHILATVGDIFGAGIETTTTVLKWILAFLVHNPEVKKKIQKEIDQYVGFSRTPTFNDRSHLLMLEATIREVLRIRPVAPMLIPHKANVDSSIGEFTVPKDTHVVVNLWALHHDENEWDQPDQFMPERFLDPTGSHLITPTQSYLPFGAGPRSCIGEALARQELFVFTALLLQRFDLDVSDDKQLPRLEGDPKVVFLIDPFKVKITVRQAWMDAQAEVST
# Method: The assay was performed by incubation of rat testicular homogenates (prepared from 220-250g adult male Sprague-Dawley rats, approx. 3.5 mg protein) with [21-^14 C]progesterone (40uM, 5×10^4 dpm), NADPH generating system and candidate inhibitors in phosphate buffer (pH 7.4, total volume 500ul) under oxygen for 45 min at 37° C. Two ml of choloroform was added to each tube to stop the reaction. The steriods were extracted with chloroform and the aqueous phase was treated with charcoal. The side chain cleavage product [2-^14 C]acetic acid in the aqueous phase was mixed with 3a70B counting cocktail and counted on the Rack Beta II liquid scintillation counter. The enzyme activity was determined from the conversion of progesterone P4 to [2-^14 C]acetic acid.
# serum testosterone = assay: In vivo study: serum testosterone of male rats (RIA); design: species or system rat (male Sprague-Dawley); conditions: 50 mg/kg/day sc, 21 days
# Method: (§1) A group of 8 adult male Sprague-Dawley rats were injected sc with vehicle (0.3% hydroxypropyl cellulose, HPC) and a group of 8 rats were injected sc with a suspension of the compound I-23 in HPC (50 mg/kg body weight/day) every 24 hours for 21 days. The rats were autopsied at the last day, the ventral prostates and blood samples were collected. The prostate tissues were stored at -70° C. and the sera were separated first by centrifugation at 2,200 rpm, then stored at -15° C. until assayed. The DHT levels in the rat prostates were measured by radioimmunoassay (RIA) using testosterone/dihydrotestosterone RIA kit from Amersham Co. (Illinois). The testosterone levels in the rat sera were measured by using the [^125 I]-testosterone diagnostic kits (ICN Biochemics Inc.). The results obtained were analyzed by using Student t test.
# (§2) The 4-pregnen-3-one-20(beta)-aldoxime was also studied for its effect on male rats in vivo. Male rats were daily treated with the compound at the dose of 50 mg/kg body weight injected subcutaneously for 21 days. […] The serum testosterone of these rats was measured as well.
# [2] = biological target: T2, 17(alpha)-hydroxylase/17,20-lyase enzyme (Rattus norvegicus, UniProt P11715); assay: 17(alpha)-hydroxylase/17,20-lyase inhibition, rat testicular microsomes (Example 1); format: biochemical; conditions: according to Ki values, result in words; listed as 4-pregnen-3-one-20(beta)-aldoxime
# T2 sequence (P11715 1-507): T1 sequence (P11715 1-507)
# Method: (§3) Testes were obtained from 220°-250g adult male Sprague-Dawley rats (Charles River), immediately frozen in liquid nitrogen and stored at -70° C. After thawing in the ice bath, the testes were minced and homogenized in 0.25M sucrose (1:4 w/v), then centrifuged at 12,000×gfor 30 min and the resulting supernatant centrifuged at 105,000×g for one hour. The supernatant was then decanted and the pellet containing the microsomes was resuspended in 0.1M sodium phosphate buffer (pH 7.4) (2.5g wet weight of tissue/ 2 ml buffer). All the above procedures were performed at 4C. The microsomal fraction was stored at -70C. Just before use, microsomes were diluted to the concentration of 1.25 g wet weight of tissue/10 ml phosphate buffer.
# The incubation was stopped by cooling the mixture in an ice bath and adding 2 ml ether to each incubation tube. The ^3 H-labelled steriods (progesterone P4; 17(alpha)-hydroxyprogesterone 170HP4, androstenedione A and testosterone T, 8,000dpm each) were added as recovery markers and the steroids were extracted with ether (2 ml×3). The ether was evaporated with air. Steroid carriers (P4, 17-0HP4, A and T, 4 micrograms each) were added to the extracts which were then applied to thin layer chromatography (TLC) plates for separation of the steroids. […] After evaporating the ether, the steroids were dissolved in counting cocktail and the radioactivity measured. The recovery of steroids calculated from the ^3 H-labelled markers was between 80 to 90 percent and the enzyme activity was determined from the percentage conversion of [4-C^14 ]-progesterone to 170HP4, A and T.
# C^17,20 -Lyase: The procedure for measurement of the C17,20 -lyase was similar to the procedure for the 17(alpha)-hydroxylase, except that the substrate was 17(alpha)-hydroxy-[[1,2,6,7-^3 H]-progesterone (various concentration, 10^5 dpm) and recovery markers were [4-^14 C]-labelled steroids. […] The enzyme activity was determined from the percent conversion of 17(alpha)-hydroxy-[1,2,6,7-3H]-progesterone to A and T.
# DHT in the prostate = assay: In vivo study: DHT concentration in the prostate of male rats (RIA); design: species or system rat (male Sprague-Dawley); conditions: 50 mg/kg/day sc, 21 days
# Method: as §1, §2
# C17,20-lyase = biological target: T3, C17,20-lyase (Rattus norvegicus, UniProt P11715); assay: C17,20-lyase assay, rat testicular microsomes (Example 1, Table 1); format: biochemical
# T3 construct: approximately 1 mg rat testicular microsomal protein in 450 microliters phosphate buffer; from tissue; host or cells: testes of adult male Sprague-Dawley rats (Charles River), microsomal fraction
# T3 sequence (P11715 1-507): T1 sequence (P11715 1-507)
# Method: as §3
# C^17,20 -Lyase: The procedure for measurement of the C17,20 -lyase was similar to the procedure for the 17(alpha)-hydroxylase, except that the substrate was 17(alpha)-hydroxy-[[1,2,6,7-^3 H]-progesterone (various concentration, 10^5 dpm) and recovery markers were [4-^14 C]-labelled steroids. Carrier steroids (170HP4, A and T) were also added to locate the product areas on the TLC plates. The enzyme activity was determined from the percent conversion of 17(alpha)-hydroxy-[1,2,6,7-3H]-progesterone to A and T.
# The purity of each steroid on the TLC was confirmed by two methods. First, the percent conversion of each compound in a half amount of the extract from one incubation were compared after separation of TLC and HPLC. The HPLC procedure has been described in detail previously. The solvent system used was methanol/acetonitrile/water (15.6:36.4:48). […] Secondly, after the first separation by TLC in solvent system A (hexane/ethyl acetate 65:35), the eluted steroids were chromatographed in solvent system B (chloroform/acetonitrile, 85:15).
# 17(alpha)-hydroxylase = biological target: T4, 17(alpha)-hydroxylase (Rattus norvegicus, UniProt P11715); assay: 17(alpha)-hydroxylase assay, rat testicular microsomes (Example 1, Table 1); format: biochemical
# T4 construct: approximately 1 mg rat testicular microsomal protein in 450 microliters phosphate buffer; from tissue; host or cells: testes of adult male Sprague-Dawley rats (Charles River), microsomal fraction
# T4 sequence (P11715 1-507): T1 sequence (P11715 1-507)
# Method: as §3
# The incubation was stopped by cooling the mixture in an ice bath and adding 2 ml ether to each incubation tube. The ^3 H-labelled steriods (progesterone P4; 17(alpha)-hydroxyprogesterone 170HP4, androstenedione A and testosterone T, 8,000dpm each) were added as recovery markers and the steroids were extracted with ether (2 ml×3). The ether was evaporated with air. Steroid carriers (P4, 17-0HP4, A and T, 4 micrograms each) were added to the extracts which were then applied to thin layer chromatography (TLC) plates for separation of the steroids. After development for 1.5 hours in hexanes/ethyl acetate, 65:35(v/v), the steroids were located by UV (254 nm) absorption, scraped off and eluted into scintillation vials with ether. After evaporating the ether, the steroids were dissolved in counting cocktail and the radioactivity measured. The recovery of steroids calculated from the ^3 H-labelled markers was between 80 to 90 percent and the enzyme activity was determined from the percentage conversion of [4-C^14 ]-progesterone to 170HP4, A and T.
# The purity of each steroid on the TLC was confirmed by two methods. First, the percent conversion of each compound in a half amount of the extract from one incubation were compared after separation of TLC and HPLC. The HPLC procedure has been described in detail previously. The solvent system used was methanol/acetonitrile/water (15.6:36.4:48). The flow rate was 1 ml/min and pressure 2200 psi, the retention time of these steroids was P4 38.3 min, 170HP4 15.93 min, A 14.33 min, and T 11.43 min, respectively. Secondly, after the first separation by TLC in solvent system A (hexane/ethyl acetate 65:35), the eluted steroids were chromatographed in solvent system B (chloroform/acetonitrile, 85:15).
# ^1 Incubation of [4^14 Cprogesterone (various concentration,
# microsome (approximately 1 mg protein) and NADPH generating system was
# carried out at 37 C. under O2 for 30 min. The apparent Km for this
# [3] = in vivo; cited from earlier work
# [4] = biological target: T5, 17(alpha)-hydroxylase/C17,20-lyase (Rattus norvegicus, UniProt P11715); assay: Hydroxylase/lyase assay, rat testis homogenates, [21-14C]-progesterone side-chain cleavage (Examples 2 and 3, Table 2); format: biochemical; conditions: progesterone 40 microM, 45 min
# T5 construct: with rat testis homogenates (2.7 mg protein in 0.5 ml phosphate buffer); from tissue; host or cells: rat testis homogenate
# T5 sequence (P11715 1-507): T1 sequence (P11715 1-507)
# Method: Compounds I-16 and I-25 were synthesized according to known procedures. The compounds were then assayed for their ability to inhibit the 17(alpha)-hydroxylase/C17,20 -lyase enzyme and the 5(alpha)-reductaseenzyme. The hydroxylase/lyase assay was carried out by incubation of [21-^14 C]-progesterone (40 microM, 70,000 dpm) and candidate inhibitors with rat testis homogenates (2.7 mg protein in 0.5 ml phosphate buffer), NADPH generating system under oxygen for 45 minutes. The enzyme activity was measured according to the conversion of progesterone to the product of C17,20 -side chain cleavage ([2-^14 C]-acetic acid). […] The results were based on the TLC separation.
# 5(alpha)-reductase = biological target: T6, 5(alpha)-reductase (Homo sapiens, UniProt P31213); assay: 5(alpha)-reductase assay, human prostatic (BPH) tissue homogenates (Example 1, Table 1); conditions: result in words
# T6 sequence (P31213 1-254): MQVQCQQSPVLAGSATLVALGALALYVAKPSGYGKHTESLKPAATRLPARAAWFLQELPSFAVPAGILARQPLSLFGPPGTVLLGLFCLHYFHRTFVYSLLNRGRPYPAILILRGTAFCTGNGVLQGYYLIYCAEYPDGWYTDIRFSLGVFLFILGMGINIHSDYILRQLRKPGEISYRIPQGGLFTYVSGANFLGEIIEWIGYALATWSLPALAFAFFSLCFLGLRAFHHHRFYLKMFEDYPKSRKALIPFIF
# Method: Tissue was homogenized in 0.1M phosphate buffer (60 mg wet weight of tissue/ ml buffer, pH 7.4) at 4C and the homogenates were diluted with an equal volume of buffer before use.
# 5(alpha)-reductase: [7-^3 H]testosterone (10^6 dpm) was incubated for 30 minutes at 37° C. with the NADPH generating system, homogenate of human prostatic tissue (30mg wet weight of tissue/1 ml buffer) and the candidate inhibitors at concentrations ranging from 0.1-10uM. […] The steroids were extracted with ether and the extracts chromatographed on TLC (chloroform: ether 95:5). […] The steroids were scraped from the plate and radioactivity measured.
SMILES,"inhibition at 400 µM ([1]; pH 7.4, read-out: Inhibition of 17(alpha)-hydroxylase/C17,20-lyase (%), [I] = 10 × [S]) [%]","inhibition at 40 µM ([1]; pH 7.4, read-out: Inhibition of 17(alpha)-hydroxylase/C17,20-lyase (%), [I] = [S]) [%]","serum testosterone (serum testosterone; n=8, control 4.03±0.64, P<0.005) [ng/ml serum]","plasma testosterone concentrations, effect in words (serum testosterone; rats)",selectivity lyase versus hydroxylase [2],"prostatic DHT levels, effect in words (DHT in the prostate)","Ki (C17,20-lyase) [µM]","potency versus Ketoconazole, C17,20-lyase (C17,20-lyase; FIG. 2, result in words)","type of inhibition of the lyase (C17,20-lyase; Lineweaver-Burk)","potency relative to ketoconazole for rat testicular C17,20-lyase (C17,20-lyase; according to the Ki values)",Ki (17(alpha)-hydroxylase) [µM],type of inhibition of the hydroxylase (17(alpha)-hydroxylase; Lineweaver-Burk),"cortisol production and side-effects, in words [3]","% Inhibition of 17(alpha)hydroxylase/lyase, [I] = 10 × [S] ([4]; [I] = 10 × [S]) [%]","% Inhibition of 17(alpha)hydroxylase/lyase, [I] = [S] ([4]; [I] = [S]) [%]",inhibition of 5(alpha)-reductase in the human prostate (5(alpha)-reductase),"Ki (C17,20-lyase; rat testicular microsomes, 17(alpha)-hydroxyprogesterone substrate, 30 min, 37 C, N.I. = no inhibition, read-out: C17,20-lyase Ki) [µM]","Ki (17(alpha)-hydroxylase; rat testicular microsomes, progesterone substrate, 30 min, 37 C, N.I. = no inhibition, read-out: 17(alpha)-hydroxylase Ki) [µM]"
"C[C@H](C=NO)[C@H]1CC[C@H]2[C@@H]3CCC4=CC(=O)CC[C@]4(C)[C@H]3CC[C@]12C [Compound I-23, 4-pregnen-3-oxo-20(beta)-carboxaldehyde oxime]",84,39.3,1.60±0.37,effective in reducing plasma testosterone concentrations,more specific inhibitor for the lyase than for the hydroxylase; also recorded: preferentially inhibited the lyase rather than the hydroxylase step,effective in reducing,1.07,more potent than Ketoconazole,competitive inhibition,approximately 3.5 fold,31.2,competitive inhibition,,,,,,
"CC(=O)N1CCN(c2ccc(OCC3COC(Cn4ccnc4)(c4ccc(Cl)cc4Cl)O3)cc2)CC1 (stereo not drawn) [Ketoconazole, reference compound]",,,,,,,,,,,,,reduces cortisol production and has a number of side-effects,65.80,31.53,did not inhibit,3.6,39.5
